Source: US12661335B2, “Halogenated xanthene-containing topical anti-gram-positive bacterial ophthalmic composition and method” (Provectus Pharmatech, Inc., priority 2021, dated 2026)

System: M. smegmatis 607 ™ (RB mutant)
Assay type: cell-based, Mycobacterium smegmatis

| Molecule | susceptibility of the RB-resistant strain to TB drugs |
| --- | --- |
| NC[C@H]1O[C@@H](O[C@H]([C@H]2O[C@@H](n3ccc(=O)[nH]c3=O)[C@H](O)[C@@H]2O)[C@H](NCCCC(=O)NCc2ccc(N3CCC(Oc4ccc(OC(F)(F)F)cc4)CC3)cc2)C(N)=O)[C@H](O)[C@@H]1O [APPB, aminouridyl phenoxypiperidinylbenzyl butanamide] | susceptible |
| CCc1cc(C(N)=S)ccn1 [Ethionamide (ETH), Ethionamide] | susceptible |
| NCC[C@H](O)C(=O)N[C@@H]1C[C@H](N)[C@@H](O[C@H]2O[C@H](CN)[C@@H](O)[C@H](O)[C@H]2O)[C@H](O)[C@H]1O[C@H]1O[C@H](CO)[C@@H](O)[C@H](N)[C@H]1O [Amikacin] | susceptible |
| Capreomycin | susceptible |
| NNC(=O)c1ccncc1 [Isoniazid (INH), Isoniazid] | cross-resistance |
